Test system: human σ1 receptor and human μ-opioid receptor
Test: Human σ1 receptor radioligand assay and human μ-opioid receptor radioligand assay (μ and σ1 dual binding)
Design: key to μ and σ1 dual binding: +: Both Ki-μ and Ki-σ1>=500 nM; ++: One Ki<500 nM while the other Ki is >=500 nM; +++: Both Ki-μ and Ki-σ1<500 nM; ++++: Both Ki-μ and Ki-σ1<100 nM
Conditions: not given

Row | Structure (SMILES) | μ and σ1 dual binding | Ki [nM]
1 | CCN1CCc2ccccc2C12CCN(CCN1CCOCC1)CC2 [Example 148, 4-(2-(2-ethyl-3,4-dihydro-2H-spiro[isoquinoline-1,4′-piperidine]-1′-yl)ethyl)morpholine] | ++ | –
2 | CCN1CCc2ccccc2C12CCN(CC(=O)N1CCS(=O)(=O)CC1)CC2 [Example 149, 2-(2-ethyl-3,4-dihydro-2H-spiro[isoquinoline-1,4′-piperidine]-1′-yl)-1-(1,1-dioxo-thiomorpholin-4-yl)ethanone] | ++ | –
3 | CCN1CCc2ccccc2C12CCN(CC(=O)N1CCC(F)CC1)CC2 [Example 150, 2-(2-ethyl-3,4-dihydro-2H-spiro[isoquinoline-1,4′-piperidine]-1′-yl)-1-(4-fluoropiperidin-1-yl)ethanone] | – | < 500
4 | CCN1CCc2ccccc2C12CCN(CC(=O)N1CCCC(F)(F)C1)CC2 [Example 151, 1-(3,3-difluoropiperidin-1-yl)-2-(2-ethyl-3,4-dihydro-2H-spiro[isoquinoline-1,4′-piperidine]-1′-yl)ethanone] | – | < 500
5 | CCC(CC)N(C)C(=O)CN1CCC2(CC1)c1ccccc1CCN2CC [Example 152, 2-(2-ethyl-3,4-dihydro-2H-spiro[isoquinoline-1,4′-piperidine]-1′-yl)-N-methyl-N-(pentan-3-yl)acetamide] | ++ | –
6 | CCN1CCc2ccccc2C12CCN(CC(=O)N(C)C)CC2 [Example 153, 2-(2-ethyl-3,4-dihydro-2H-spiro[isoquinoline-1,4′-piperidine]-1′-yl)-N,N-dimethylacetamide] | ++ | –
7 | CCN(C(=O)CN1CCC2(CC1)c1ccccc1CCN2CC)C1CC1 [Example 154, N-cyclopropyl-N-ethyl-2-(2-ethyl-3,4-dihydro-2H-spiro[isoquinoline-1,4′-piperidine]-1′-yl)acetamide] | – | < 500
8 | CCN(CC)C(=O)CN1CCC2(CC1)c1ccccc1CCN2CC [Example 155, N,N-diethyl-2-(2-ethyl-3,4-dihydro-2H-spiro[isoquinoline-1,4′-piperidine]-1′-yl)acetamide] | – | < 500

Same assay, conditions: combined class for Ki-μ ([3H]-DAMGO, CHO-K1 membranes) and Ki-σ1 ([3H](+)-pentazocine, HEK-293 membranes)

Row | Structure (SMILES) | Ki [nM]
9 | CN1Cc2ccccc2C12CCN(CC(=O)N1CCC(F)(F)CC1)CC2 [Example 156, 1-(4,4-difluoropiperidin-1-yl)-2-(2-methylspiro[isoindoline-1,4′-piperidine]-1′-yl)ethanone] | ≥ 500
10 | CCN(C(=O)CN1CCC2(CC1)c1ccccc1CN2C)C(C)C [Example 157, N-ethyl-N-isopropyl-2-(2-methylspiro[isoindoline-1,4′-piperidine]-1′-yl)acetamide] | ≥ 500
11 | CN1CCc2ccccc2C12CCN(CCNCCO)CC2 [Example 160, 2-(2-(2-Methyl-3,4-dihydro-2H-spiro[isoquinoline-1,4′-piperidine]-1′-yl)ethylamino)ethanol] | ≥ 500

— patent US10407428B2, “Spiro-isoquinoline-1,4′-piperidine compounds having multimodal activity against pain” (ESTEVE PHARMACEUTICALS, S.A., priority 2014, dated 2019)
